Where a SMILES comes first, the peptide text is derived from it. Bridges are numbered along the chain shown (N, C = ends).
Target: human MCH receptor (Homo sapiens, UniProt Q99705)
Experiment: Aequorin bioluminescence functional assay in 293-AEQ17 cells transfected with human MCH receptor
Format: cell-based
Design: expressed in transfected cells; host or cells: 293-AEQ17 (aequorin-expressing HEK-293 reporter line), transient lipofectamine transfection, pcDNA-3 vector; Activity Activation %: concentration or dose not given beside the values
Method: The aequorin bioluminescence assay is a reliable test for measuring the activity of G protein-coupled receptors that couple through the Gα protein subunit family consisting of Gq and Gll and leads to the activation of phospholipase C, mobilization of intracellular calcium and activation of protein kinase C.
Following approximately 40 hours of expression the apo-aequorin in the cells was charged for 4 hours with coelenterazine (10 μM) under reducing conditions (300 μM reduced glutathione) in ECB buffer (140 mM NaCl, 20 mM KCl, 20 mM HEPES-NaOH [pH=7.4], 5 mM glucose, 1 mM MgCl2, 1 mM CaCl2, 0.1 mg/ml bovine serum albumin).
The cells were harvested, washed once in ECB medium and resuspended to 500,000 cells/ml. 100 μl of cell suspension (corresponding to 5×10^4 cells) was then injected into the test plate containing MCH or MCH analogs, and the integrated light emission was recorded over 30 seconds, in 0.5 second units. 20 μL of lysis buffer (0.1% final Triton X-100 concentration) was then injected and the integrated light emission recorded over 10 seconds, in 0.5 second units. The “fractional response” values for each well were calculated by taking the ratio of the integrated response to the initial challenge to the total integrated luminescence including the Triton X-100 lysis response.

[1] = Table 4, position 6 modification
[2] = Table 5, position 10 modification
[3] = Table 6, position 13 modification

Sequence of human MCH receptor (Q99705 whole entry): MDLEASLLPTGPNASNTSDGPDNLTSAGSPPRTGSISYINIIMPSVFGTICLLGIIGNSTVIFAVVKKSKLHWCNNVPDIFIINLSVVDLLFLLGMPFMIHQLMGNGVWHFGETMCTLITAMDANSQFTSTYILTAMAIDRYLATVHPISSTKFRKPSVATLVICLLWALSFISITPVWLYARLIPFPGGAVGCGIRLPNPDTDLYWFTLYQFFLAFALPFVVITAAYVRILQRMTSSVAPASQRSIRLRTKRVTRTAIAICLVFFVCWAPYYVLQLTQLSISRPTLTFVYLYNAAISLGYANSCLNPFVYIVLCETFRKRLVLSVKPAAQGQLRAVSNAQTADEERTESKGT

SMILES	Activity Activation % [1] [%]	Activity Activation % [2] [%]	further results
CSCC[C@@H]1NC(=O)[C@@H](NC(=O)[C@H](CCCNC(=N)N)NC(=O)[C@H](CC(C)C)NC(=O)[C@H](CCSC)NC(=O)[C@H](CC(=O)O)NC(=O)[C@H](Cc2ccccc2)NC(=O)[C@@H](N)CC(=O)O)CSSC[C@@H](C(=O)N[C@@H](Cc2c[nH]c3ccccc23)C(=O)N[C@@H](CCC(N)=O)C(=O)N[C@H](C(=O)O)C(C)C)NC(=O)[C@@H]2CCCN2C(=O)[C@H](CCCNC(=N)N)NC(=O)[C@H](Cc2ccc(O)cc2)NC(=O)[C@H](C(C)C)NC(=O)[C@H](CCCNC(=N)N)NC(=O)CNC(=O)[C@H](CC(C)C)NC1=O [compound 11]	100	100	% Activation at 10 μM (Table 1, at 10 μM, aequorin functional assay): 100%; Activity Activation % (Table 2, D-amino acid analogs): 100%; Activity Activation % (Table 3, N-methyl-amino acid analogs): 100%; Activity Activation % [3]: 100%; Activity Activation % (Table 7, combinations and position 8): 100%
CSCC[C@@H]1NC(=O)[C@@H](NC(=O)[C@H](C)NC(C)=O)CSSC[C@@H](C(N)=O)NC(=O)[C@@H]2CCCN2C(=O)[C@H](CCCNC(=N)N)NC(=O)[C@H](Cc2ccc(O)cc2)NC(=O)[C@H](C(C)C)NC(=O)[C@H](CCCNC(=N)N)NC(=O)CNC(=O)[C@H](CC(C)C)NC1=O [compound 31] (Ac-ACMLGRVYRPC-NH2; disulfide 2-11 (inferred))	135	–	–
CSCC[C@@H]1NC(=O)[C@@H](NC(=O)[C@@H]2CCCN2C(C)=O)CSSC[C@@H](C(N)=O)NC(=O)[C@@H]2CCCN2C(=O)[C@H](CCCNC(=N)N)NC(=O)[C@H](Cc2ccc(O)cc2)NC(=O)[C@H](C(C)C)NC(=O)[C@H](CCCNC(=N)N)NC(=O)CNC(=O)[C@H](CC(C)C)NC1=O [compound 33]	133	–	–
CSCC[C@@H]1NC(=O)[C@@H](NC(=O)[C@H](CC(N)=O)NC(C)=O)CSSC[C@@H](C(N)=O)NC(=O)[C@@H]2CCCN2C(=O)[C@H](CCCNC(=N)N)NC(=O)[C@H](Cc2ccc(O)cc2)NC(=O)[C@H](C(C)C)NC(=O)[C@H](CCCNC(=N)N)NC(=O)CNC(=O)[C@H](CC(C)C)NC1=O [compound 34]	96	–	–
CSCC[C@@H]1NC(=O)[C@@H](NC(=O)[C@H](CO)NC(C)=O)CSSC[C@@H](C(N)=O)NC(=O)[C@@H]2CCCN2C(=O)[C@H](CCCNC(=N)N)NC(=O)[C@H](Cc2ccc(O)cc2)NC(=O)[C@H](C(C)C)NC(=O)[C@H](CCCNC(=N)N)NC(=O)CNC(=O)[C@H](CC(C)C)NC1=O [compound 35]	120	–	–
CSCC[C@@H]1NC(=O)[C@@H](NC(=O)[C@H](CCC(=O)O)NC(C)=O)CSSC[C@@H](C(N)=O)NC(=O)[C@@H]2CCCN2C(=O)[C@H](CCCNC(=N)N)NC(=O)[C@H](Cc2ccc(O)cc2)NC(=O)[C@H](C(C)C)NC(=O)[C@H](CCCNC(=N)N)NC(=O)CNC(=O)[C@H](CC(C)C)NC1=O [compound 36]	113	–	–
CSCC[C@@H]1NC(=O)[C@@H](N)CSSC[C@@H](C(N)=O)NC(=O)[C@@H]2CCCN2C(=O)[C@H](CCCNC(=N)N)NC(=O)[C@H](Cc2ccc(O)cc2)NC(=O)[C@H](C(C)C)NC(=O)[C@H](CCCNC(=N)N)NC(=O)CNC(=O)[C@H](CC(C)C)NC1=O [compound 37]	120	–	–
CSCC[C@@H]1NC(=O)[C@@H](NC(C)=O)CSSC[C@@H](C(N)=O)NC(=O)[C@@H]2CCCN2C(=O)[C@H](CCCNC(=N)N)NC(=O)[C@H](Cc2ccc(O)cc2)NC(=O)[C@H](C(C)C)NC(=O)[C@H](CCCNC(=N)N)NC(=O)CNC(=O)[C@H](CC(C)C)NC1=O [compound 38]	82	–	–
CSCC[C@@H]1NC(=O)[C@@H](NC(=O)[C@@H](N)CCCNC(=N)N)CSSC[C@@H](C(N)=O)NC(=O)[C@@H]2CCCN2C(=O)[C@H](CCCNC(=N)N)NC(=O)[C@H](Cc2ccc(O)cc2)NC(=O)[C@H](C(C)C)NC(=O)[C@H](CCCNC(=N)N)NC(=O)CNC(=O)[C@H](CC(C)C)NC1=O [compound 39]	106	–	–
CSCC[C@@H]1NC(=O)[C@@H](NC(=O)[C@H](CCCNC(=N)N)NC(C)=O)CSSC[C@@H](C(N)=O)NC(=O)[C@@H]2CCCN2C(=O)[C@H](CCCNC(=N)N)NC(=O)[C@H](Cc2ccc(O)cc2)NC(=O)[C@H](C(C)C)NC(=O)[C@H](CCCNC(=N)N)NC(=O)[C@H](C)NC(=O)[C@H](CC(C)C)NC1=O [compound 47] (Ac-RCMLARVYRPC-NH2; disulfide 2-11)	–	104	–
CSCC[C@@H]1NC(=O)[C@@H](NC(=O)[C@H](CCCNC(=N)N)NC(C)=O)CSSC[C@@H](C(N)=O)NC(=O)[C@@H]2CCCN2C(=O)[C@H](CCCNC(=N)N)NC(=O)[C@H](Cc2ccc(O)cc2)NC(=O)[C@H](C(C)C)NC(=O)[C@H](CCCNC(=N)N)NC(=O)[C@H](CC(C)C)NC(=O)[C@H](CC(C)C)NC1=O [compound 48]	–	106	–
CSCC[C@@H]1NC(=O)[C@@H](NC(=O)[C@H](CCCNC(=N)N)NC(C)=O)CSSC[C@@H](C(N)=O)NC(=O)[C@@H]2CCCN2C(=O)[C@H](CCCNC(=N)N)NC(=O)[C@H](Cc2ccc(O)cc2)NC(=O)[C@H](C(C)C)NC(=O)[C@H](CCCNC(=N)N)NC(=O)[C@H](CC(N)=O)NC(=O)[C@H](CC(C)C)NC1=O [compound 51] (Ac-RCMLNRVYRPC-NH2; disulfide 2-11)	–	106	EC50 [2]: 23 nM
CSCC[C@@H]1NC(=O)[C@@H](NC(=O)[C@H](CCCNC(=N)N)NC(C)=O)CSSC[C@@H](C(N)=O)NC(=O)[C@@H]2CCCN2C(=O)[C@H](CCCNC(=N)N)NC(=O)[C@H](Cc2ccc(O)cc2)NC(=O)[C@H](C(C)C)NC(=O)[C@H](CCCNC(=N)N)NC(=O)[C@H](CO)NC(=O)[C@H](CC(C)C)NC1=O [compound 52] (Ac-RCMLSRVYRPC-NH2; disulfide 2-11 (inferred))	–	104	–
CSCC[C@@H]1NC(=O)[C@@H](NC(=O)[C@H](CCCNC(=N)N)NC(C)=O)CSSC[C@@H](C(N)=O)NC(=O)[C@@H]2CCCN2C(=O)[C@H](CCCNC(=N)N)NC(=O)[C@H](Cc2ccccc2)NC(=O)[C@H](C(C)C)NC(=O)[C@H](CCCNC(=N)N)NC(=O)CNC(=O)[C@H](CC(C)C)NC1=O [compound 62]	–	–	Activity Activation % [3]: 96%
